Read-outs that look alike come from different tables or passages of the source.
Columns and labels:
influenza virus = tested on: influenza virus; parameters: method as in PMID 11825310, PMID 9588843; conditions: usually; cited from earlier work
Hep-2 cells = assay: Cellular penetration: Mo content in Hep-2 cells by ICP-AES; type: cell-based, human; conditions: for Cellular penetration: Hep-2 cells, 30 min to 48 h incubation, ICP-AES
Procedure: (§1) The cells were seeded into 6-well plates at concentration of 5 × 10^5 cells/well. The next day, solutions of 1 and 2 were added to the plates to give final concentrations of 1.0 mM and incubated with cells for 30 min, 2, 6, 24 and 48 h. Then, cells were washed three times with a sterile phosphate buffer. The cells were then removed from the wells with trypsin and centrifuged at 1000 rpm for 5 min. After centrifugation, the number of cells in each sample was calculated. The resulting cell suspension was brought to a volume of 300 µL in a sterile buffer so that each sample contained 0.5 million cells.
(§2) Molybdenum content in cells after incubation times was determined on a high-resolution spectrometer iCAP-6500 (Thermo Scientific, Waltham, MA, USA) with a cyclone-type spray chamber and “SeaSpray” nebulizer. The spectra were obtained by axial plasma viewing. Standard operating conditions of the ICP-AES system were following: power = 1150 W, injector inner diameter = 3 mm, carrier argon flow = 0.7 L min^−1, accessorial argon flow = 0.5 L min^−1, cooling argon flow = 12 L min^−1, number of parallel measurements = 3, and integration time = 5 s.

[1] = tested on: MDCK cells (Madin–Darby canine kidney cells); conditions: absence of virus, up to 500 μM, 72 h
[2] = tested on: Hep-2 (human larynx carcinoma cell line); conditions: read-out: half-maximal cell inhibition concentration (IC50); Hep-2 cells, MTT, 72 h, concentration range up to 2 mM
Text: (§3) MDCK (Madin–Darby canine kidney, ATCC CCL34), MRC-5 (lung tissue fibroblasts of a human embryo, collection code 112) and Hep-2 (human larynx carcinoma) cell lines were obtained from the Federal Budgetary Research Institution State Research Center of Virology and Biotechnology “Vector” Rospotrebnadzor cell culture collection, Russian Federation and cultured in Eagle’s Minimum Essential Medium (EMEM) and Dulbecco’s Modified Eagle’s Medium (DMEM) in relation to 1:1 supplemented with a 10% fetal bovine serum under a humidified atmosphere (5% CO2 and 95% air) at 37 °C.
(§4) The effect of compounds 1, 2 and 3 on the cells metabolic activity was determined using the 3-[4,5-dimethylthiazol-2-yl]-2,5-diphenyltetrazolium bromide (MTT) colorimetric assay. The Hep-2 and MRC-5 cells were seeded into 96-well plates at 7 × 10^3 cells/well in a medium-containing compound with concentrations from 2 to 0.01 mM and then incubated for 72 h under 5% CO2 atmosphere. After that, 10 μL of the MTT solution (final concentration of MTT is 0.5 mg·mL^−1) was added to each well, and the plates were incubated for a further 4 h. The formazan produced was then dissolved in DMSO (100 μL/well). The optical density of the solutions was measured with a Mindray Microplate Reader MR-96A (Mindray, Shenzhen, China) at a wavelength of 492 nm. The percentage of cell viability was calculated by the formula: (optical density of the solution in the wells after incubation with the compounds/optical density of the control solution) × 100%. Wells with cells incubated in a pure nutrient medium were used as a control.

[3] = tested on: MRC-5 (lung tissue fibroblasts of a human embryo); conditions: read-out: half-maximal cell inhibition concentration (IC50); MRC-5 cells, MTT, 72 h, concentration range up to 2 mM
Text: as §3, §4

[4] = tested on: influenza A virus, subtype H5N1 (strain A/chicken/Chelyabinsk region/2KL/Russia/2021); type: cell-based
MRC-5 cells = assay: Cellular penetration: Mo content in MRC-5 cells by ICP-AES; type: cell-based, human; conditions: for Cellular penetration: MRC-5 cells, 30 min to 48 h incubation, ICP-AES
Procedure: as §1, §2

[5] = Stability in solution by changes in electronic absorption spectra; type: physicochemical; conditions: for behaviour in acid solution: HCl, pH~2, two days; for stability in distilled water: pH~6, two days, C~1 mM
Procedure: Since the compounds are soluble in water, an important factor is their stability in aqueous solutions at different pH. Stability was studied by changes in electronic absorption spectra over two days (C~1 mM, diluted 60 times to record spectra) (Figure 6). […] The most significant changes occur in the acid solution (HCl, pH~2). […] Protonation of the pyrazolate ligands, which occurs in acidic solutions, results in the dissociation of binuclear clusters. […] Unlike the pyrazole, the triazole structure has an additional free nitrogen atom that can be protonated. In this case, protonation of the triazolate ligands and formation of a neutral form [Mo12O28(μ-1,2,4-trz)4(μ-1,2,4-trzH)4] with low solubility apparently occurs. […] The complex can be dissolved back into water by adding any alkali solution, which is confirmed by the preservation of the ^1H NMR spectra (Figure S15). Typically, most POMs are not stable in weakly acidic or alkaline aqueous solutions [26, 27], while the compounds studied show the opposite situation, which is associated with both the structure based on binuclear clusters and their linkages through bridging pyrazolate or triazolate ligands.
Elemental analyses were obtained using a vario MICRO cube analyzer and EuroVector EA3000. Energy-dispersive X-ray spectroscopy (EDS) was performed on a Hitachi TM3000 TableTop SEM (Hitachi High-Technologies Corporation, Tokyo, Japan) with Bruker QUANTAX 70 EDS equipment. FTIR spectra were recorded on a Bruker Vertex 80 as KBr disks. The thermal properties (TGA) were studied on a Thermo Microbalance TG 209 F1 Iris (NETZSCH) from 25 to 800 °C at the heating rate of 10 °C·min^−1 in He flow (30 mL·min^−1). Powder X-ray diffraction patterns were collected on a Philips PW 1820/1710 diffractometer (CuKα radiation, graphite monochromator and Si as an external reference). The absorption spectra (UV–vis) were recorded on an Agilent Cary 60 UV/Vis spectrophotometer.

Influenza A H1N1 = tested on: Influenza A H1N1; parameters: method as in PMID 24878685; conditions: Influenza A H1N1, incubation time 48h, cited from earlier work
MDCK cells = tested on: MDCK cells; parameters: method as in PMID 24878685; conditions: read-out: IC50 (cytotoxicity against MDCK cells); cited from earlier work
Solubility = type: physicochemical; conditions: compared with the other complexes
[6] = Hep-2, 1 mM solution (∽2350 µg Mo/5·10^5 cells), 30 minutes
[7] = MRC-5, 1 mM solution (∽2350 µg Mo/5·10^5 cells), 30 minutes

Molecule	EC50 (influenza virus) [µM]	Quantity of Mo accumulated by cells (Hep-2 cells; [6]) [μg Mo/5·105 cells]	Quantity of Mo accumulated by cells (Hep-2 cells; Hep-2, 1 mM solution, 2 hours) [μg Mo/5·105 cells]	Quantity of Mo accumulated by cells (Hep-2 cells; Hep-2, 1 mM solution, 6 hours) [μg Mo/5·105 cells]	Quantity of Mo accumulated by cells (Hep-2 cells; Hep-2, 1 mM solution, 24 hours) [μg Mo/5·105 cells]	Quantity of Mo accumulated by cells (Hep-2 cells; Hep-2, 1 mM solution, 48 hours) [μg Mo/5·105 cells]	Cellular penetration (Hep-2 cells)	cytopathic effect on MDCK cells [1]	IC50 [2] [µM]	IC50 [3] [µM]	Quantity of Mo accumulated by cells (MRC-5 cells; [7]) [μg Mo/5·105 cells]	Quantity of Mo accumulated by cells (MRC-5 cells; MRC-5, 1 mM solution, 2 hours) [μg Mo/5·105 cells]	Quantity of Mo accumulated by cells (MRC-5 cells; MRC-5, 1 mM solution, 6 hours) [μg Mo/5·105 cells]	Quantity of Mo accumulated by cells (MRC-5 cells; MRC-5, 1 mM solution, 24 hours) [μg Mo/5·105 cells]	Quantity of Mo accumulated by cells (MRC-5 cells; MRC-5, 1 mM solution, 48 hours) [μg Mo/5·105 cells]	Cellular penetration (MRC-5 cells)	behaviour in acid solution [5]	stability in distilled water [5]	other results
CC(=O)N[C@H]1[C@H]([C@H](O)[C@H](O)CO)OC(C(=O)O)=C[C@@H]1N=C(N)N [zanamivir]	< 10	–	–	–	–	–	–	–	–	–	–	–	–	–	–	–	–	–	–
(NH4)4[Mo12O28(μ-pz)8]·1.5pzH·4.5H2O [Compound 1]	–	0.25	0.46	0.47	0.75	0.75	absence of cell penetration	do not show any significant cytopathic effect	> 2000	> 2000	0.22	0.25	0.24	0.77	0.83	absence of cell penetration	complete destruction	high stability	concentrations at which antiviral effect was found ([4]; MDCK cells in presence of H5N1 virus, 72 h, MTT): above 62.5 μM; EC50 ([4]; presence of H5N1 virus, 72 h, nonlinear regression, read-out: EC50 (50% virus-inhibitory effective concentration as indirectly measured by MDCK cell viability)): 82.4 ± 11.4 µM; decrease in the absorption intensity ([5]; NaOH, pH~12, two days): ~ 10%
Cs2K4Na[SiW9Nb3O40] [POM93]	–	–	–	–	–	–	–	–	–	–	–	–	–	–	–	–	–	–	EC50 (Influenza A H1N1; converted from μg/mL, read-out: EC50): ~2.4 µM; EC50 (Influenza A H1N1): 7.4 ± 1.1 µg/mL; IC50 (MDCK cells): 140 µM
(NH4)4[Mo12O28(μ-1,2,3-trz)8]·4H2O [Compound 3]	–	–	–	–	–	–	–	–	–	–	–	–	–	–	–	–	–	–	solubility in water (Solubility): significantly lower solubility in water
(NH4)4[Mo12O28(μ-1,2,4-trz)8]·1.5(1,2,4-trzH)·3H2O [Compound 2]	–	0.18	0.32	0.33	0.43	0.42	absence of cell penetration	do not show any significant cytopathic effect	> 2000	1810 ± 40	0.23	0.11	0.12	0.34	0.34	absence of cell penetration	immediately precipitates	high stability	antiviral effect ([4]; MDCK cells in presence of H5N1 virus, concentration range tested up to 500 μM): no effect or insignificant effect; stability in alkaline solution (spectral change) ([5]; NaOH, pH~12, two days): slight change in the absorption intensity
CCOC(=O)C1=C[C@@H](OC(CC)CC)[C@H](NC(C)=O)[C@@H](N)C1 [oseltamivir]	< 10	–	–	–	–	–	–	–	–	–	–	–	–	–	–	–	–	–	–

Reference: article PMC10745505 (Molecules, 2023)
